Results: patent US10414718B2, “Dezocine analogue” (priority 2016, dated 2019)
Where two headings read alike, the source gives them in different places.

Experiments:
μ opioid receptor = molecular target: T1, μ opioid receptor (Homo sapiens, UniProt P35372); test: FLIPR intracellular calcium signal test, HEK293-μ cells; format: cell-based; details: for EC50: EC50 (activation) test, read-out: Mu receptor EC50; for IC50: IC50 (inhibition) test against EC80 of positive agonist, read-out: Mu receptor IC50
T1 construct: expressed in transfected cells
T1 sequence (P35372 whole entry): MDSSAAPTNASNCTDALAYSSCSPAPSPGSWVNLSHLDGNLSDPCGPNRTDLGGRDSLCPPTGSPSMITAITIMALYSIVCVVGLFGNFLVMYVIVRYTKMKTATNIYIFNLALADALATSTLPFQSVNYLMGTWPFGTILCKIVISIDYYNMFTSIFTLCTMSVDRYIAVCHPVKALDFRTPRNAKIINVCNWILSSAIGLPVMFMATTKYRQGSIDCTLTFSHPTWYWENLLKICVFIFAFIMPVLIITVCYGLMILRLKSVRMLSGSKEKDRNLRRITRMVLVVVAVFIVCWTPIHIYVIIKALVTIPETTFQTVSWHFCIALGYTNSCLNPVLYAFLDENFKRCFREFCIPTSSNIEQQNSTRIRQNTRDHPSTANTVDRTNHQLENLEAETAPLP
Experimental: (§1) Fluorescence imaging plate reader FLIPR was used to detect changes of intracellular calcium signals. EC50 and IC50 values of the compounds were used as indicators to evaluate the activation or inhibition of the compounds on μ, κ, and δ opioid receptors.
(§2) Cell lines: HEK293-μ, HEK293-κ and HEK293-δ, stable-transfected cell lines HEK293-μ, HEK293-κ and HEK293-δ; Cell culture media (DMEM, Invitrogen #11965118, 10% fetal bovine serum Invitrogen #10099141, Geneticin Selective Antibiotic (G418) 300 μg/mL, Invitrogen #10131027, Blasticidin-S HCL 2 ug/mL Invitrogen #A1113902)
(§3) 1. Cell Seeding (HEK293-μ, HEK293-κ and HEK293-δ Cells)
(§4) 1) Preheating medium, pancreatic enzyme, and DPBS in a 37° C. water bath. Aspirating the culture medium from the cell culture flask and washing it with 10 mL DPBS;
(§5) 2) Adding the preheated pancreatic enzyme solution to the cell culture flask, rotating the flask slightly to make the pancreatic enzymes evenly cover the cell surface of the flask, and then putting it into a 37° C., 5% CO2 incubator to digest for 1-2 minutes;
(§6) 3) Suspending the cells with 10-15 mL culture medium in each T150 cm^2 cell culture flask, centrifugating at 800 rpm for 5 minutes, and resuspending the cells with 10 mL culture medium, aspirating 1 mL cell resuspension to be counted with Vi-cell;
(§7) 4) Diluting HEK293-μ, HEK293-κ and HEK293-δ cells to 5×10^5/mL with culture medium, use multichannel pipette to add diluted cells into 384 plate (Greiner #781946) (50 μL/well, 25000 cells/well for HEK293-μ, HEK293-κ and HEK293-δ cells). Placing the cell plate in a 37° C., 5% CO2 incubator overnight.
(§8) 2. Adding Compound Samples:
(§9) 1) Diluting the compound to 20 mM with DMSO, 3 fold diluted, 8 gradients, double reduplicative wells, and adding it to the compound plate using an Echo ultrasonic liquid handler device (Echo liquid handler).
(§10) 1) Washing off the cell culture medium in 384 plate with vacuum pump, adding 20 μL Fluo-4 Direct fluorescent dye, then incubating in a 37° C., 5% CO2 incubator for 50 minutes, followed by equilibrating at room temperature for 10 minutes.
(§11) 2) EC50 test: Adding 20 uL HBSS buffer (containing 20 mM HEPES) to the compound plate, mixing well and centrifugating. Placing the cell plate and compound plate into FLIPR and reading the fluorescence value.
(§12) Calculating the EC80 value with the EC50 value of the positive agonist, preparing 4× EC80 solution, adding it to the 384 compound plate by multichannel pipette, and mixing well and centrifugating.
(§13) 4) IC50 test: In FLIPR, successively placing 4× EC80 plate, cell plate, FLIPR tip, running the program and reading the fluorescence value.
(§14) 4. Data Analyzing: Using Prism 5.0 to Analyze the Data and Calculate the EC50 and IC50 Values of the Compounds.

κ opioid receptor = molecular target: T2, κ opioid receptor (Homo sapiens, UniProt P41145); test: FLIPR intracellular calcium signal test, HEK293-κ cells; format: cell-based; details: for EC50: EC50 (activation) test, read-out: Kapp receptor EC50; for IC50: IC50 (inhibition) test against EC80 of positive agonist, read-out: Kapp receptor IC50
T2 construct: expressed in transfected cells
T2 sequence (P41145 whole entry): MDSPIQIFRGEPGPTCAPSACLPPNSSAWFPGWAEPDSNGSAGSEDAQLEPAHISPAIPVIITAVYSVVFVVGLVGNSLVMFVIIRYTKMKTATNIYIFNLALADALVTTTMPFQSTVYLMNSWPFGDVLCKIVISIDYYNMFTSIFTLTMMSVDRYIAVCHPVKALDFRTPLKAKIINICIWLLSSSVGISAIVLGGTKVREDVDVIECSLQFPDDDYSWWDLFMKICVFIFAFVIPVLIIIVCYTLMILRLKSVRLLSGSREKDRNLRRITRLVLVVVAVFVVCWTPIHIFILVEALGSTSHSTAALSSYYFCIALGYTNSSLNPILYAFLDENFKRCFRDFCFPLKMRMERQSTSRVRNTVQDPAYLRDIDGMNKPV
Experimental: as §1, §2, §3, §4, §5, §6, §7, §8, §9, §10, §11, §12, §13, §14

δ opioid receptor = molecular target: T3, δ opioid receptor (Homo sapiens, UniProt P41143); test: FLIPR intracellular calcium signal test, HEK293-δ cells; format: cell-based; details: for EC50: EC50 (activation) test, read-out: Delt receptor EC50; for IC50: IC50 (inhibition) test against EC80 of positive agonist, read-out: Delt receptor IC50
T3 construct: expressed in transfected cells
T3 sequence (P41143 whole entry): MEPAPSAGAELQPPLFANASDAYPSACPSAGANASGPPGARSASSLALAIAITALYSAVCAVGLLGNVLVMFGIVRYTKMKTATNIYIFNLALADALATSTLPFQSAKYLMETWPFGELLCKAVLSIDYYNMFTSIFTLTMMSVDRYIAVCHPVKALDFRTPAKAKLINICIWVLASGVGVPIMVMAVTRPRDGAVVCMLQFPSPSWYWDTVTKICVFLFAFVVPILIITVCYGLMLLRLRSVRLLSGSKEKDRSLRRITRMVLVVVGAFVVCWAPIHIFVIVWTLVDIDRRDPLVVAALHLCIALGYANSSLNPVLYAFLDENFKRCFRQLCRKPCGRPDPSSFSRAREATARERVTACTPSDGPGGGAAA
Experimental: as §1, §2, §3, §4, §5, §6, §7, §8, §9, §10, §11, §12, §13, §14

[1] = Pharmacokinetic study of intravenous injection in rats; details: SD, rat, plasma, 1 mg/kg
Text: Through the in vivo drug metabolism test in rats, values such as Cmax, t1/2, AUC, MRT and B/P ratio of the compound in vivo were used as indicators to evaluate the metabolism of the compound in rats.
1. Pharmacokinetic Study of Intravenous Injection of Dezocine and Analogues Thereof in Rats
Mixing the test compound with an appropriate amount of physiological saline solution of 20% polyethylene glycol 400, followed by vortex and sonicate, and adjusting the pH to 4-5 with hydrochloric acid to obtain 5 mg/mL approximately clear solution, filtering the solution by microporous filtering film to be used. Selecting 6 to 9 weeks old SD rats (Shanghai Sleek Laboratory Animal Co., Ltd.) and intravenously injecting the test compound solution at a dose of 1 mg/kg. Collecting whole blood in certain time to prepare and obtain plasma. Analyzing drug concentrations by LC-MS/MS method and calculating pharmacokinetic parameters using Phoenix WinNonlin software (Pharsight, USA).

[2] = Brain distribution study of intravenous injection in rats; details: rat, 1 mg/kg, brain tissue to plasma concentration ratio; for B/P ratio (0.25 h): 0.25 h after dosing; for B/P ratio (2 h): 2 h after dosing
Experimental: 2. Brain Distribution Study of Intravenous Injection of Dezocine and Analogues Thereof in Rats
Intravenously injecting the test compound solution in the same manner as example 1 at a dose of 1 mg/kg. Executing animals with carbon dioxide 15 minutes and 2 hours after dosing, collecting whole blood and brain tissue sample, centrifugating the whole blood to obtain plasma, and homogenizing the brain tissue with triple volumes of deionized water. Analyzing drug concentration of the plasma and brain homogenate samples by LC-MS/MS method, and calculating the concentration ratio of brain tissue to plasma (B/P ratio).

[3] = Pharmacokinetics of intramuscular injection of Compound 21 and prodrug thereof in rats; details: SD, in vivo, im, rat
Text: 3. Pharmacokinetics of Intramuscular Injection of Compound 21 and Prodrug Thereof in Rats
Mixing the test compound with an appropriate amount of sesame oil, followed by vortex and sonicate, to prepare and obtain 25 μmol/mL homogeneous suspension. […] Collecting whole blood in certain time, adding precipitant (acetonitrile, methanol and analytical internal standard) and centrifugating.

Row | Structure (SMILES) | EC50 (μ opioid receptor) | IC50 (μ opioid receptor) | EC50 (κ opioid receptor) | IC50 (κ opioid receptor) | EC50 (δ opioid receptor) | IC50 (δ opioid receptor) | AUC(0-t) [1] | C0 [1] | MRT last [1] | Vd [1] | clearance [1] | half-life [1] | B/P ratio (0.25 h) [2] | B/P ratio (2 h) [2] | other results
1 | C[C@@]12CCCCC[C@@H](Cc3c(F)cc(O)cc31)[C@@H]2N [Compound 21] | ≤ 0.1 µM | ≤ 0.1 µM | > 100 µM | 1 to 10 µM | > 100 µM | 1 to 10 µM | 0.387 µM·h | 493 nM | 1.35 h | 16.2 L/kg | 155 mL/min/kg | 1.42 h | 13.3 | 19.8 | half-life ([3]; 40 umol/kg, Compound 21 itself dosed at 40 μmol/kg, sesame oil suspension): 4.2 h; AUC(0-t) ([3]; 40 umol/kg, Compound 21 itself dosed at 40 μmol/kg, sesame oil suspension, read-out: AUC0-last): 3.99 µM·h; Cmax ([3]; 40 umol/kg, Compound 21 itself dosed at 40 μmol/kg, sesame oil suspension, read-out: Cmax): 1750 nM; MRT last ([3]; 40 umol/kg, Compound 21 itself dosed at 40 μmol/kg, sesame oil suspension, read-out: MRT0-last): 2.82 h; Tmax ([3]; 40 umol/kg, Compound 21 itself dosed at 40 μmol/kg, sesame oil suspension, read-out: Tmax): 0.5 h
2 | C[C@]12CCCCC[C@@H](Cc3c(Cl)cc(O)cc31)[C@@H]2N [Compound 23] | ≤ 0.1 µM | ≤ 0.1 µM | > 100 µM | 1 to 10 µM | > 100 µM | > 100 µM | 0.341 µM·h | 362 nM | 1.65 h | 20.6 L/kg | 165 mL/min/kg | 1.6 h | 16.7 | 27.9 | –
3 | C[C@@]12CCCCC[C@@H](Cc3c(F)cc(OC(=O)CCCCC(=O)Oc4cc(F)c5c(c4)[C@@]4(C)CCCCC[C@@H](C5)[C@@H]4N)cc31)[C@@H]2N [Compound 34] | – | – | – | – | – | – | – | – | – | – | – | – | – | – | AUC(0-t) ([3]; 20 umol/kg, carboxylic diester prodrug 20 μmol/kg, analyte: prodrug itself, read-out: AUC0-last of the prodrug): 0.00295 µM·h; Cmax ([3]; 20 umol/kg, carboxylic diester prodrug 20 μmol/kg, analyte: prodrug itself, read-out: Cmax of the prodrug): 3.91 nM; MRT last ([3]; 20 umol/kg, carboxylic diester prodrug 20 μmol/kg, analyte: prodrug itself, read-out: MRT0-last of the prodrug): 0.539 h; Tmax ([3]; 20 umol/kg, carboxylic diester prodrug 20 μmol/kg, analyte: prodrug itself, read-out: Tmax of the prodrug): 0.25 h
